The record followed here is PubChem BioAssay AID1645866 (Buhrlage Lab, Dana-Farber Cancer Institute and Novartis …, 2021).

A word on the IC50: it is the concentration needed to halve the response being measured.

Active and inactive are the calls of the source.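 How the source made its calls: active means in confirmatory dose-response testing, peak deubiquitinase inhibition of 30% or more; inactive means the rest.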

This assay has as its target Ubiquitin carboxyl-terminal hydrolase 28 (Homo sapiens) (UniProt Q96RU2). Description: Concentration-response biochemical assay confirming initial hits as inhibitors of ubiquitin-specific protease 28 (AID 1645866). As to conditions: purified USP28, ubiquitin-rhodamine fluorescence, 30 min.

Chain of Ubiquitin carboxyl-terminal hydrolase 28 (Homo sapiens) (Q96RU2 whole entry, looked up): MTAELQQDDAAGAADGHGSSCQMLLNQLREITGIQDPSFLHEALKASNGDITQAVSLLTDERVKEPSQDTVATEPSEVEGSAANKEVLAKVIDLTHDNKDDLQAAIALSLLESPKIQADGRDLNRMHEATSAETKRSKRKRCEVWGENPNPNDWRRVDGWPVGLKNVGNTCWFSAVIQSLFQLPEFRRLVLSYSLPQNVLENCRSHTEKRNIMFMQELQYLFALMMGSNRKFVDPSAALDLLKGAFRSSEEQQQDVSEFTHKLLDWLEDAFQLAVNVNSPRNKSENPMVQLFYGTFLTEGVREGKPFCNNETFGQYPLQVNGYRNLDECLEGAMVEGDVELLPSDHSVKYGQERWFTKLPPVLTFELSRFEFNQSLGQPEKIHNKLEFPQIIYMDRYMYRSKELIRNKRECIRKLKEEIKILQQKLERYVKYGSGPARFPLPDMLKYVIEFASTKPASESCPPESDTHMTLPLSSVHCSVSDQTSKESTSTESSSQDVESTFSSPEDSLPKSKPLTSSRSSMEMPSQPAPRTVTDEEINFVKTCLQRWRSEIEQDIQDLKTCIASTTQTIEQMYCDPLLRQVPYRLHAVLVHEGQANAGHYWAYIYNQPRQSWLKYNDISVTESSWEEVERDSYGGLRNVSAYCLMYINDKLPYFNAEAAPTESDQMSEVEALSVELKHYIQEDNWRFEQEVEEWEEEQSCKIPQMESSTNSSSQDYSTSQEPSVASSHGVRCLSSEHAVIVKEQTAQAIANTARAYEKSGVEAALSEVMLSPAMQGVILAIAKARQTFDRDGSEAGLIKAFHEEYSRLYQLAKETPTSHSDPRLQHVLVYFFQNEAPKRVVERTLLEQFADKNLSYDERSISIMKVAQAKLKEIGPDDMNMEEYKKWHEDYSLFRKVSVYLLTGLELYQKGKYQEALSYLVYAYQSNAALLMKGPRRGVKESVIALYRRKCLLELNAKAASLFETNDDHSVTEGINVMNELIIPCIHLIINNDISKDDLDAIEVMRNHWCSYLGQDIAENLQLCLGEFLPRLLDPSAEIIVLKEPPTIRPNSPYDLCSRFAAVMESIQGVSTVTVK

With `Cc1cc(C(=O)N2CCOC3(CC=CCN(CCc4ccccc4)C3=O)C2)n2nccc2n1` (stereo unspecified), the IC50 is > 50 µM (inactive).

Take `N#Cc1ccc(Cn2nnc(-c3cccc(Cl)c3)n2)cc1`: the IC50 is 8.66 µM.

Regarding `CN(C)Cc1ccc(C(=O)Nc2ccc(-c3nccs3)cc2)cc1`, the half-inhibitory concentration (IC50) was 1.1 µM.

Turning to `COc1ccccc1NC(=O)Cn1cc(C(=O)c2ccc(C)cc2)c(=O)c2ccccc21`, the IC50 was 21.8 µM.

Turning to `COc1ccc(OC)c(NC(=O)Cn2c(=O)n(CC3CCC(C(=O)NCCc4ccccc4)CC3)c(=O)c3ccccc32)c1` (stereo unspecified), the half-maximal inhibitory concentration (IC50) was 4.61 µM.

Turning to `COC(=O)c1ccc2c(=O)n(CCCCCC(=O)NCc3cccc(Cl)c3)c(=O)[nH]c2c1`, the IC50 is 2.05 µM.

In the case of `O=C(O)c1ccc(C2Cc3c([nH]c(=O)[nH]c3=O)O2)cc1` (stereo unspecified), the IC50 is 6.53 µM.

For the compound `N#C/C(=C\c1ccc(OCc2cccc(C(=O)O)c2)cc1)c1ccc(F)cc1`, the IC50 is 17.8 µM.

Regarding `CC1CC[C@]2(NC1)O[C@H]1C[C@H]3[C@@H]4CC[C@H]5C[C@@H](O[C@@H]6O[C@H](CO)[C@H](O[C@@H]7O[C@H](CO)[C@@H](O)[C@H](O[C@@H]8OC[C@@H](O)[C@H](O)[C@H]8O)[C@H]7O[C@@H]7O[C@H](CO)[C@@H](O)[C@H](O)[C@H]7O)[C@H](O)[C@H]6O)CC[C@]5(C)[C@H]4CC[C@]3(C)[C@H]1[C@@H]2C` (stereo partly specified), the IC50 was 30.5 µM.

With `CC(C)(C)C(=O)Nc1ccc(SCc2nnc(-c3ccccc3)o2)cc1`, the 50% inhibitory concentration (IC50) is 21.8 µM.

In the case of `O=C(NCCc1ccccn1)c1cn2ccnc(-c3ccc(F)cc3)c2n1`, the IC50 is > 50 µM (inactive).

Consider `CCCCCC(O)c1c(O)cc2c(c1O)C(=O)c1c(O)cc(O)cc1C2=O` (stereo unspecified), for which the IC50 was > 50 µM (inactive).

Take `Cc1ccc(NC(=O)c2cnc3c(c2)c(=O)n(C)c(=O)n3C)cc1`: the IC50 is 2.07 µM.

On to `CS(=O)(=O)N1CCc2cc(C(=O)Nc3ccc(Cc4ccncc4)cc3)ccc21`, for which the IC50 was 8.75 µM.

For the compound `Cc1cc(C)cc(N(CCC(=O)Nc2ccc(N3CCOCC3)cc2)S(=O)(=O)c2ccc(Cl)cc2)c1`, the IC50 is 12.9 µM.

On to `Cc1nc(-c2cccc(NC(=O)C3CCN(c4ccccc4)C3=O)c2)no1` (stereo unspecified), for which the IC50 was 27.3 µM.

`CCOc1ccc(-c2noc(-c3nn(-c4cccc(OC)c4)ccc3=O)n2)cc1`: the 50% inhibitory concentration (IC50) is 4.44 µM.

`O=C(CSc1nnnn1-c1ccccc1)Nc1ccccc1`: the IC50 is 39.8 µM.

For the compound `Cc1nc2ccccn2c1C1(O)C(=O)Nc2c(Cl)cc(Cl)cc21` (stereo unspecified), the IC50 was > 50 µM (inactive).

For `O=C(Nc1cccc(F)c1)c1ncoc1-c1ccco1`, the IC50 was > 50 µM (inactive).

Turning to `CCCCOc1ccc(C(=O)Nc2ccc3c(c2)CCC(=O)N3CCC)cc1`, the half-maximal inhibitory concentration (IC50) was 1.01 µM.

Take `CCc1c(Cl)c(O)c(Cl)c(O)c1C(=O)O[C@H]1C(C)O[C@@H](OC/C2=C\C=C\CC(O)/C(C)=C/C(CC)C(O[C@@H]3OC(C)(C)[C@H](O)C(OC(=O)C(C)C)[C@@H]3O)/C(C)=C/C(C)=C/CC(C(C)O)OC2=O)[C@@H](OC)C1O` (stereo partly specified): the IC50 is > 50 µM (inactive).

Regarding `O=C(Cn1cnc2c(cnn2-c2ccc(Cl)cc2)c1=O)NCc1ccccc1Cl`, the IC50 was 9.05 µM.

Regarding `CCC1=C(c2ccc(C)cc2)S(=O)(=O)NC1=NCC(=O)NC(C)c1ccccc1` (stereo unspecified), the 50% inhibitory concentration (IC50) is 19.5 µM.

For the compound `O=C1Oc2nc3ccccc3cc2CN1Cc1ccco1`, the IC50 was 18.4 µM.

Take `O=C(COC(=O)Cn1cnc2ccccc21)Nc1ccc2c(c1)OCCO2`: the half-inhibitory concentration (IC50) was 29.3 µM.

Turning to `Cc1nnc(-c2nnc(NCc3ccc(Cl)cc3)c3ccccc23)o1`, the IC50 is > 50 µM (inactive).

As for `O=C1Nc2c(Cl)cc(Cl)cc2C1(O)c1sc(NC2CCCCC2)nc1-c1ccccc1` (stereo unspecified), the IC50 was 24.6 µM.

As for `COc1ccccc1NC(=O)Nc1ccc(NC(=O)c2ccccc2O)cc1`, the IC50 was 37.4 µM.

`c1ccc(Cc2nn3c(-c4cccnc4)nnc3c3ccccc23)cc1`: the 50% inhibitory concentration (IC50) is 2.53 µM.

Regarding `CCCNC(=O)c1ccn(-c2ccc3ccc(-c4cnn(C)c4)cn23)n1`, the IC50 is > 50 µM (inactive).

On to `COc1ccc(CNC(=O)CN2C(=O)CC(c3ccccc3)=Nc3ccccc32)cc1`, for which the IC50 is 11.9 µM.

On to `COc1cccc(NC(=O)Cc2sc(Nc3cc(C)cc(C)c3)nc2O)c1`, for which the half-maximal inhibitory concentration (IC50) is 18.1 µM.

Regarding `COc1ccc(NC(=O)c2cc(-c3cccnc3)n[nH]2)cc1Cl`, the IC50 is 1.27 µM.

As for `CC(C)CC1NC(=O)C2CCCN2C1=O` (stereo unspecified), the IC50 is 37.1 µM.

`Cc1ccc(NCc2cc3c(C(C)(C)C)nn(-c4ccc(Cl)cc4)c3[nH]c2=O)cc1`: the IC50 is 23.6 µM.

`CCc1ccc2c(c1)[C@]1(C(=O)N2)[C@@H]2C(=O)N(c3ccc(Cl)cc3Cl)C(=O)[C@@H]2[C@@H]2CCCN21`: the IC50 was > 50 µM (inactive).

`CCc1nc(-c2cccc(NC(=O)c3ccc(C#N)cc3F)c2)no1`: the IC50 was 36.2 µM.

As to `Cc1ccccc1NC(=O)c1ccn(COc2ccc(Cl)cc2)n1`, the IC50 is 13.3 µM.

Consider `O=C(Nc1ccccc1)c1nc(-c2cn(Cc3ccc(F)cc3)nn2)no1`, for which the IC50 was 21 µM.

For the compound `O=C(CCC1CCCCC1)Nc1ccccc1C(=O)N1CCOCC1`, the IC50 was > 50 µM (inactive).

`Cc1ccc(Nc2nc(O)c(CC(=O)Nc3ccccc3C)s2)cc1C`: the IC50 was 16.7 µM.

Regarding `CC(=O)CN1CC2(CCN(Cc3ccc(F)cc3)CC2)COc2ccccc2S1(=O)=O`, the IC50 was > 50 µM (inactive).

With `Cc1ccc(-c2cn(CC(=O)N3CCN(c4ccccn4)CC3)c(=O)o2)cc1`, the IC50 is 16.5 µM.

For the compound `O=C(CSc1nc2cc(S(=O)(=O)Nc3ccccc3Cl)ccc2o1)Nc1ccc(N2CCOCC2)cc1`, the IC50 was 34.5 µM.

As for `CCc1cc(=O)n(CC(=O)Nc2cc(C)ccc2OC)c(N2CCOCC2)n1`, the IC50 was 26.2 µM.

Take `CC(c1ccccc1)n1c(-c2ccc(F)cc2)nc2c(c(=O)c3ccccc3n2C)c1=O` (stereo unspecified): the half-inhibitory concentration (IC50) was 1.85 µM.

With `CC1CCN(S(=O)(=O)c2ccc3[nH]cc(C(=O)NCc4ccco4)c(=O)c3c2)CC1`, the IC50 was > 50 µM (inactive).

On to `CC(=O)c1sc(NC(=O)c2ccccc2-c2ccc(C(F)(F)F)cc2)nc1C`, for which the IC50 was 18.8 µM.

As to `COc1ccc(CNc2nn3c(-c4cncc(OC)c4)cnc3s2)cc1`, the IC50 is 2.61 µM.

For `CN(C)C1CCN(C(=O)c2cc(-c3ccn(-c4ccccc4)n3)n3ccccc23)CC1`, the IC50 was > 50 µM (inactive).

With `COc1ccc(C(=O)Nc2n[nH]c(C)c2-c2cccc(C)c2)c(OC)c1`, the concentration for half-maximal inhibition (IC50) was 10.3 µM.

On to `COC(=O)c1ccc2c(=O)n(CCCCCC(=O)NCCc3ccc(S(N)(=O)=O)cc3)c(=O)[nH]c2c1`, for which the IC50 is 8.65 µM.

Regarding `Cn1cccc1C(=O)N1CCCC2(C1)Nc1cccnc1NC2=NC1CCCC1` (stereo unspecified), the IC50 is > 50 µM (inactive).

Regarding `O=c1ccc(-c2noc(-c3ccc4cc[nH]c4c3)n2)c[nH]1`, the IC50 was > 50 µM (inactive).

For `O=C(NC1(O)C(=O)c2ccccc2C1=O)c1cccc2c1-c1ccccc1C2=O`, the 50% inhibitory concentration (IC50) is 32.6 µM.

As for `CSc1ncccc1C(=O)OCc1ccc(Br)cc1`, the 50% inhibitory concentration (IC50) is 1.98 µM.

Regarding `Cc1noc(-c2cc(=O)n(CC(=O)NCc3ccccc3)c3ccccc23)n1`, the IC50 was 25.1 µM.

As for `O=C(Cc1noc2ccccc12)NCC(=O)Nc1ccc(Cl)cc1`, the IC50 is 18 µM.

`Cc1cc(C)c(NC(=O)Cn2c(=O)n(CCC(=O)NCc3ccc4c(c3)OCO4)c(=O)c3sccc32)c(C)c1`: the IC50 was 2.67 µM.

In the case of `CC(C)CC[C@H]1O[C@@H](CC(=O)O)Cc2cc3c(c(O)c21)C(=O)c1sc(=O)n(C)c1C3=O`, the concentration for half-maximal inhibition (IC50) is 2.74 µM.

Take `CCCCCCCc1cc(O)cc(OC(=O)c2c(CCCCCCC)cc(O)cc2O[C@H]2O[C@H](C(O)CO)[C@@H](O)[C@@H]2O)c1` (stereo partly specified): the IC50 was 2.18 µM.

`Clc1cncc(Oc2nc(-c3cccnc3)nc3ccccc23)c1`: the IC50 is 9.69 µM.

In the case of `Cc1ccccc1-c1nnc(-c2ccc(C(=O)NCc3ccccc3F)cc2)o1`, the IC50 was 12.6 µM.

`O=C(Nc1ccc(F)cc1)Nc1ccccc1OCc1cc(=O)n2ccccc2n1`: the half-maximal inhibitory concentration (IC50) was 9.44 µM.

For the compound `Cc1cc(C)cc(-n2cnc3cc(C(=O)NCCC4=CCCCC4)ccc32)c1`, the half-inhibitory concentration (IC50) was 2.01 µM.

As for `c1cncc(-c2nc(Nc3ccc4c(c3)OCCO4)c3ccccc3n2)c1`, the IC50 is 34.9 µM.

As to `CC1Oc2cc3c(-c4c(O)cc(O)c5c(O)c6c(cc45)OC(C)C(C)C6=O)c(O)cc(O)c3c(O)c2C(=O)C1C` (stereo unspecified), the IC50 was 2.18 µM.

Take `O=C(Nc1ccccc1Cl)N(Cc1cc2cc3c(cc2[nH]c1=O)OCCO3)C1CCCCC1`: the 50% inhibitory concentration (IC50) was 49.1 µM.

As to `COc1ccc(NC(=O)CN2C(=O)c3ccccc3Sc3ccc(C(=O)N4CCCC4)cc32)cc1OC`, the concentration for half-maximal inhibition (IC50) is 34.2 µM.

For the compound `O=C(NC1CCN(Cc2ccccc2)CC1)c1[nH]nc2c1COc1ccccc1-2`, the IC50 was 6.98 µM.

For `CCC[C@H]1O[C@@H]2CC(=O)O[C@@H]2C2=C1C(=O)c1c(O)cccc1C2=O`, the half-maximal inhibitory concentration (IC50) is 14.3 µM.

As to `Cc1cccc(NC(=O)Nc2nnc(CC(=O)NCc3ccccc3)s2)c1`, the 50% inhibitory concentration (IC50) was 11.3 µM.

As to `O=C(c1ccc(COc2cccc3ccccc23)o1)N1CCC(Cc2ccccc2)CC1`, the IC50 is > 50 µM (inactive).

In the case of `O=C(Cc1noc2ccccc12)N1CCN(c2ccc([N+](=O)[O-])cc2)CC1`, the IC50 was > 50 µM (inactive).

As to `CN1c2ccccc2CN(CC(N)=O)CC1Cc1ccccc1` (stereo unspecified), the IC50 was > 50 µM (inactive).

Consider `CSc1nc(SCC(N)=O)c2c3c(sc2n1)COC(C)(C)C3`, for which the half-maximal inhibitory concentration (IC50) is 27.3 µM.

In the case of `COc1cc2c(c3oc4cccc(O)c4c(=O)c13)C1C=COC1O2` (stereo unspecified), the IC50 is 36.7 µM.

As for `O=C(Nc1cc(-c2cccnc2)no1)c1ccc(F)c(F)c1`, the concentration for half-maximal inhibition (IC50) is 10.9 µM.

With `Cc1cccc(NC(=O)CSc2nnc(-c3n[nH]c4c3CCC4)n2N)c1C`, the IC50 was 17.6 µM.

Regarding `Cc1ccc(-c2ccc(N3CCOCC3)nn2)cc1S(=O)(=O)N1CCOCC1`, the IC50 was > 50 µM (inactive).

Turning to `O=C(NCc1ccc(F)cc1)C1CCN(c2cnc(N3CCCCC3)nc2)CC1`, the IC50 was 0.695 µM.

For `CCOc1ccc(NC(=O)CSc2nc3n[nH]c(C)c3c(=N)n2-c2ccc(OC)cc2)cc1`, the IC50 is 34 µM.

`Cc1ccc2c(c1)N=C(c1ccc([N+](=O)[O-])cc1)CO2`: the IC50 was > 50 µM (inactive).

Take `CN(C)C(=O)CSc1nnc(-c2cccc(Cl)c2)n1-c1ccc(Cl)c(C(F)(F)F)c1`: the half-inhibitory concentration (IC50) is 5.78 µM.

As for `Cc1cccc(S(=O)(=O)N2CCc3nc4ccccc4n3CC2)c1`, the IC50 was 24.3 µM.
